Experimental data: ChEMBL document CHEMBL1150012, “Enantioselective synthesis of a pyrrolo-benzothiadiazine derivative S 18986, a new AMPA receptor positive modulator” (Bioorg Med Chem Lett, 1996)

Legend:
[1] = biological target: Glutamate receptor 1 (Rattus norvegicus) (UniProt P19490); assay: (§1) Compound was evaluated to potentiate response of AMPA-activated current in Xenopus oocytes expressing Ionotropic glutamate receptor AMPA; assay type: functional, cell-based; conditions: Oocyte
[2] = biological target: Glutamate receptor ionotropic AMPA (Homo sapiens) (UniProt P48058+P42263+P42262+P42261); assay: as §1; assay type: functional, cell-based; conditions: Oocyte
[3] = biological target: Glutamate [NMDA] receptor (Homo sapiens) (UniProt Q05586+Q12879+Q13224+O15399+O60391+Q14957+Q8TCU5); assay: Compound was evaluated to potentiate response to NMDA receptor; assay type: protein-complex assay
[4] = biological target: Glutamate receptor ionotropic kainate (Homo sapiens) (UniProt P39086+Q16478+Q16099+Q13002+Q13003); assay: Compound was evaluated to potentiate response to Ionotropic glutamate receptor kainate; assay type: protein-complex assay

Sequence of Glutamate receptor 1 (Rattus norvegicus) (P19490 whole entry): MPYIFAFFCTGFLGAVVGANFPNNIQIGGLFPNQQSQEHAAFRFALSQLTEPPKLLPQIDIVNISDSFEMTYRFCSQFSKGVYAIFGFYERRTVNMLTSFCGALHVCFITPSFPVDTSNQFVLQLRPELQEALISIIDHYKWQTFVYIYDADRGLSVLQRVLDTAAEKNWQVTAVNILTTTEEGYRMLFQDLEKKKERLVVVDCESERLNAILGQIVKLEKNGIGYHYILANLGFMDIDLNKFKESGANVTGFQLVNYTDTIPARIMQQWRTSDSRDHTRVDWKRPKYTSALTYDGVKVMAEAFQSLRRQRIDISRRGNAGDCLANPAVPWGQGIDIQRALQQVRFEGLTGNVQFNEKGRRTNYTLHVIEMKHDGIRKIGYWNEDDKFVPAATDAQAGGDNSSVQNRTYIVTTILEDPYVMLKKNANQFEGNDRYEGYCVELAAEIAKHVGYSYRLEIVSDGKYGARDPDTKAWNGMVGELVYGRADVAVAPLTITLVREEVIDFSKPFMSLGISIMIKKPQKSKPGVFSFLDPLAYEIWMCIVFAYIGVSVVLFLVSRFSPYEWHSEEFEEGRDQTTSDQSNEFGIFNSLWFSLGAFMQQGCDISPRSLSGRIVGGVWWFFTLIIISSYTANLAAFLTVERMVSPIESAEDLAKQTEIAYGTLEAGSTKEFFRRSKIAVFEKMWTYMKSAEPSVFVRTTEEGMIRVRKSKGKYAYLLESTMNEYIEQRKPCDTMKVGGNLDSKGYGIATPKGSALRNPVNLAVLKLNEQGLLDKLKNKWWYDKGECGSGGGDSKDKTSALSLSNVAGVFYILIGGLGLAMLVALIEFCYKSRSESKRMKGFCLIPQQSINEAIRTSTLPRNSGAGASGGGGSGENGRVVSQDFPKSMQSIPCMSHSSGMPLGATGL

Row | SMILES | EC2x [1] [µM] | EC5x [1] [µM] | other results
1 | O=S1(=O)N[C@@H]2CCCN2c2ccccc21 | 300 |  | 
2 | O=S1(=O)N[C@H]2CCCN2c2ccccc21 |  |  | EC2x [2]: 35 µM; EC5x [2]: 70 µM; EC2x [3]: > 300 µM; EC2x [4]: > 300 µM
3 | NS(=O)(=O)c1cc2c(cc1Cl)NC(C1CC3C=CC1C3)NS2(=O)=O (configuration not stated) | 2 | 10 | 
4 | O=S1(=O)NC2CCCN2c2ccccc21 (racemic) | 60 | 160 | 

Further lines, with some results ahead:

Row | EC2x [1] [µM] | EC5x [1] [µM] | SMILES | other results
5 | 300 |  | O=C(c1ccc2c(c1)OCO2)N1CCCCC1 | 
6 | 45 | 110 | O=C(c1ccc2c(c1)OCCO2)N1CC=CCC1 | 
